The text below walks through data of publication PMC7034070, “Synthesis, anti-inflammatory, cytotoxic, and COX-1/2 inhibitory activities of cyclic imides bearing 3-benzenesulfonamide, oxime, and β-phenylalanine scaffolds: a molecular docking study” (Journal of Enzyme Inhibition and Medicinal Chemistry, 2020).

One series relates to 59 cancer cell lines. As to the kind of experiment: full NCI 59 cell line panel assay, single dose. The conditions noted are these: one dose 10.0 μM, 59 cell lines. The series is classed as cell-based.
The next series has as its system CAKI-1 (Renal Cancer). As to the kind of experiment: NCI 59 cell line panel, single dose. It is filed as cell-based. Conditions: CAKI-1, one dose 10.0 μM.
The next series has as its target T1, COX-1 (Ovis aries, UniProt P05979).
T1 construct: purchased Cayman Chemicals Inc., Ann Arbour, MI
T1 sequence (P05979 25-600): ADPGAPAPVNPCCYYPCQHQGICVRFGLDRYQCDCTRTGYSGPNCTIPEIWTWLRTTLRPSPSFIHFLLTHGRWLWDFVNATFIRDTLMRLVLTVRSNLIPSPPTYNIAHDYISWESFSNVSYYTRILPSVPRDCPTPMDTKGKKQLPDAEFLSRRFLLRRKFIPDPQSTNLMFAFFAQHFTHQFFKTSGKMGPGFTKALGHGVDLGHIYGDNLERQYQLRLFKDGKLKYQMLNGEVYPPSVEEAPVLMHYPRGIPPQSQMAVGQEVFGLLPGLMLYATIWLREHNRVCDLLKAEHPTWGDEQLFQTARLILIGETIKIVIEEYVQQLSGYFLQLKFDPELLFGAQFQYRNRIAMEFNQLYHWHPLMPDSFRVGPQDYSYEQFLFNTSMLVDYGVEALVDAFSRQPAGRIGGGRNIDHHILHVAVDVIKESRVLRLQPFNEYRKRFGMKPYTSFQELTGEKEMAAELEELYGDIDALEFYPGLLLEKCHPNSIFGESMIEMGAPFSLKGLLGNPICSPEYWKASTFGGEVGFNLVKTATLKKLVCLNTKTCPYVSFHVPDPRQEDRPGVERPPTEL
Description: colorimetric COX (ovine) inhibitor screening assay kit. The series is classed as biochemical. The conditions noted are these: ovine COX-1, mean of two determinations. From the text: (§1) To determine the relative ability of the test compounds and reference drugs to inhibit COX-1/COX-2 isozymes, we used the colorimetric COX (ovine) inhibitor screening assay kit (Cayman Chemicals Inc., Ann Arbour, MI), according to the manufacturer’s instructions[3]^,[10]^,[11]^,[20].

In a further series the target is T2, COX-2 (Ovis aries, UniProt P79208).
T2 construct: purchased Cayman Chemicals Inc., Ann Arbour, MI
T2 sequence (P79208 17-603): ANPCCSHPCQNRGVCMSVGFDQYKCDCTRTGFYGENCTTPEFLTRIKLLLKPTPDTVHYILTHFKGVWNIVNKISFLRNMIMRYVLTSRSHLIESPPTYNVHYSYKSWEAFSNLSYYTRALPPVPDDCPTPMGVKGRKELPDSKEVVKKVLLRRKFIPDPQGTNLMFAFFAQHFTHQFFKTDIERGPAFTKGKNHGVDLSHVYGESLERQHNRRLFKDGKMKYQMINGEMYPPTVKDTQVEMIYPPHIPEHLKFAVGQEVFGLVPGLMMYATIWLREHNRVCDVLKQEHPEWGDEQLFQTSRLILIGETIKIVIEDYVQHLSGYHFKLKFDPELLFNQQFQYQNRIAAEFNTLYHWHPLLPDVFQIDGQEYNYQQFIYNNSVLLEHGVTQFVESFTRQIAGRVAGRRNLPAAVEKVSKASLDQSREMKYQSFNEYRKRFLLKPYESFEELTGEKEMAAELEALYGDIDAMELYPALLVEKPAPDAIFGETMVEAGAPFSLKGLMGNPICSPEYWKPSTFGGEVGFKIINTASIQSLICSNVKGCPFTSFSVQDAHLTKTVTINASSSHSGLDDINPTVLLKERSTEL
The series is described as above. The series is classed as biochemical. The conditions noted are these: for SI, selectivity index (COX-1 IC50/COX-2 IC50): ovine COX-1/COX-2; for IC50: ovine COX-2, mean of two determinations.
Text: as §1

Series [1] concerns carrageenan induced rat paw oedema. Description: rat carrageenan-induced foot paw oedema model. It is filed as in vivo. The conditions noted are these: for Mean % increase in paw weight ± SEM / % Inhibition of paw oedema from control group: 2 h after carrageenan; for Mean % increase in paw weight ± SEM: control group 165.6 ± 1.6; for % Inhibition of paw oedema from control group: single dose screen (Table 1). The method, then:
Anti-inflammatory assessment of the newly synthesised compounds was carried out using an in vivo rat carrageenan-induced foot paw oedema model, as reported previously[16]^,[17].
(In the carrageenan paw model, swelling and tenderness develop within hours.)

The subject of series [2] is NCI-H522 (NSC Lung Cancer). As to the kind of experiment: NCI 59 cell line panel, single dose. The series is classed as cell-based. The conditions noted are these: NCI-H522, one dose 10.0 μM.
For another series, the system named is UO-31 (Renal Cancer). Description: NCI 59 cell line panel, single dose. The series is classed as cell-based. The conditions noted are these: UO-31, one dose 10.0 μM.
The test system of a further series is mice. As to the kind of experiment: Ulcerogenicity measurement. The series is classed as in vivo. The method, then: Ulcerogenicity was evaluated according to a previously reported method[6]^a,[17]^,[18]. The number and total length of the ulcers for each animal were measured and their averages were calculated and used as the ulcer indices.
The test system of a further series is TK-10 (Renal Cancer). Description: NCI 59 cell line panel, single dose. It is filed as cell-based. The conditions noted are these: TK-10, one dose 10.0 μM.
The next series deals with HL-60(TB) (Leukaemia). As to the kind of experiment: NCI 59 cell line panel, single dose. The series is classed as cell-based. Conditions: one dose 10.0 μM.
Another series relates to PC-3 (Prostate Cancer). Description: NCI 59 cell line panel, single dose. The series is classed as cell-based. The conditions noted are these: PC-3, one dose 10.0 μM.
The test system of series [3] is NCI-H322M (NSC Lung Cancer). As to the kind of experiment: NCI 59 cell line panel, single dose. It is filed as cell-based. Conditions: one dose 10.0 μM.
For another series, the system named is HOP-92 (NSC Lung Cancer). As to the kind of experiment: NCI 59 cell line panel, single dose. It is filed as cell-based. Conditions: HOP-92, one dose 10.0 μM.
Another series has as its system HT29 (Colon Cancer). As to the kind of experiment: NCI 59 cell line panel, single dose. Conditions: HT29, one dose 10.0 μM.
The test system of a further series is SR (Leukaemia). As to the kind of experiment: NCI 59 cell line panel, single dose. Conditions: one dose 10.0 μM.
For the next series, the system named is SF-539 (CNS Cancer). As to the kind of experiment: NCI 59 cell line panel, single dose. Conditions: SF-539, one dose 10.0 μM.
The test system of the next series is MOLT-4 (Leukaemia). Description: NCI 59 cell line panel, single dose. Conditions: MOLT-4, one dose 10.0 μM.
The test system of another series is HCT-116 (Colon Cancer). As to the kind of experiment: NCI 59 cell line panel, single dose. The conditions noted are these: HCT-116, one dose 10.0 μM.
In series [4] the test system is NCI-H23 (NSC Lung Cancer). As to the kind of experiment: NCI 59 cell line panel, single dose. The conditions noted are these: NCI-H23, one dose 10.0 μM.
Description: (§2) These cell lines were obtained from nine different organs including leukaemia, non-small cell lung, colon, CNS, melanoma, ovarian, renal, prostate, and breast[19].
Another series has as its system HCT-15 (Colon Cancer). As to the kind of experiment: NCI 59 cell line panel, single dose. Conditions: HCT-15, one dose 10.0 μM.
Another series has as its system PRMI-8226 (Leukaemia). As to the kind of experiment: NCI 59 cell line panel, single dose. Conditions: PRMI-8226, one dose 10.0 μM.
Series [5] relates to MDA-MB-468 (Breast Cancer). As to the kind of experiment: NCI 59 cell line panel, single dose. The conditions noted are these: MDA-MB-468, one dose 10.0 μM.
In series [6] the test system is NCI-H226 (NSC Lung Cancer). As to the kind of experiment: NCI 59 cell line panel, single dose. Conditions: NCI-H226, one dose 10.0 μM.
The subject of the next series is U251 (CNS Cancer). Description: NCI 59 cell line panel, single dose. The conditions noted are these: U251, one dose 10.0 μM.
The test system of series [7] is MDA-MB-231/ATCC (Breast Cancer). Description: NCI 59 cell line panel, single dose. Conditions: one dose 10.0 μM.
The next series relates to DU-145 (Prostate Cancer). As to the kind of experiment: NCI 59 cell line panel, single dose. Conditions: DU-145, one dose 10.0 μM.
In another series the test system is EKVX (NSC Lung Cancer). As to the kind of experiment: NCI 59 cell line panel, single dose. The conditions noted are these: one dose 10.0 μM.
A further series relates to A498 (Renal Cancer). As to the kind of experiment: NCI 59 cell line panel, single dose. The conditions noted are these: A498, one dose 10.0 μM.
The subject of the next series is LOX IMVI (Melanoma). Description: NCI 59 cell line panel, single dose. Conditions: one dose 10.0 μM.
The test system of another series is T-47D (Breast Cancer). As to the kind of experiment: NCI 59 cell line panel, single dose. The conditions noted are these: one dose 10.0 μM.
The next series deals with SF-295 (CNS Cancer). Description: NCI 59 cell line panel, single dose. The conditions noted are these: SF-295, one dose 10.0 μM.

Molecules are shown by their SMILES. Several values for one entry are separate records, joined by “and”; a condition that tells them apart may be missing. Equal entries are not always repeated. Some results are limits rather than exact numbers.

Description for A498 (Renal Cancer): as §2
Description for DU-145 (Prostate Cancer): as §2
Description for HCT-116 (Colon Cancer): as §2
Description for HCT-15 (Colon Cancer): as §2
Description for HT29 (Colon Cancer): as §2
Description for LOX IMVI (Melanoma): as §2
Description for SF-295 (CNS Cancer): as §2
Description for SF-539 (CNS Cancer): as §2
Description for U251 (CNS Cancer): as §2

By IC50 is commonly meant the concentration that inhibits the measured activity by half. A high value points to a need for much substance. The melting point is the temperature of the solid-liquid transition. `NS(=O)(=O)c1cccc(N2C(=O)CCC2=O)c1` [Compound 2, 3-(2,5-Dioxopyrrolidin-1-yl)benzenesulfonamide] registered a melting point of 195 to 197 °C. The “PCE (positive cytotoxic effect: cell lines with growth inhibition >10% / total number of cell lines)” value in the series with 59 cancer cell lines is on record as 3/59. The molecule further returned a GI% in the series with CAKI-1 (Renal Cancer) of 12%. At COX-1, this molecule displayed an IC50 above 50 µM. Besides, on COX-2, the “SI, selectivity index (COX-1 IC50/COX-2 IC50)” value is above 192.3 and the IC50 came to 260 nM. Besides, in [1], the “Mean % increase in paw weight ± SEM” value is 53.2 ± 0.4%; the “% Inhibition of paw oedema from control group” value (shortened to “% Inhibition of paw oedema”) is 71.2% and 71.2 ± 0.5%. The GI% in series [2] was determined as 12%. Further, the GI% in the series on UO-31 (Renal Cancer) turned out to be 13%.
For orientation: ED50 means the dose that gives a 50% effect, or the effect in half of the subjects. High values mean weaker potency, low ones greater potency. Consider `NS(=O)(=O)c1cccc(N2C(=O)c3ccccc3C2=O)c1` [Compound 4], for which the “PCE (positive cytotoxic effect: cell lines with growth inhibition >10% / total number of cell lines)” value in the series on 59 cancer cell lines was 3/59. The “Average number of ulcers” value in the series on mice (mice) is 6. Also, in the series on mice (mice, ± SEM), the “Mean sum of lengths of elongated ulcer” value came out at 4.7 ± 0.54 mm. Further, the “level of ulcerogenic activity (in words)” value in the series with mice (relative to diclofenac and celecoxib) was “ulcerogenic level similar to celecoxib and less than that of diclofenac”. In addition, the IC50 was above 50 µM against COX-1 and 180 nM against COX-2. Moreover, the “SI, selectivity index (COX-1 IC50/COX-2 IC50)” value at COX-2 is above 277.8. Moreover, the figures for the GI% (in the series on TK-10 (Renal Cancer); in the series with HL-60(TB) (Leukaemia); in series [2]) were 11%, 18% and 16.0%, respectively. In series [1], the “Mean % increase in paw weight ± SEM” value is listed as 41.0 ± 0.2%. For the same molecule, in series [1], the “% Inhibition of paw oedema” value was 77.8% and 77.8 ± 0.6%. Also, the “Percentage inhibition of paw oedema from control group” value in [1] (dose 45 mg/kg) was 65.0%; in [1] (dose 65 mg/kg) it was 77.8%; in series [1] (dose 80 mg/kg), 86.2%. The molecule also showed an ED50 in series [1] (from three graded doses (45, 65, 80 mg/kg)) of 45.3 mg/kg.
Molecule `Cc1ccc2c(c1)C(=O)N(c1cccc(S(N)(=O)=O)c1)C2=O` [Compound 5, 3-(5-Methyl-1,3-dioxoisoindolin-2-yl)benzenesulfonamide] yielded a melting point of 225 to 226 °C. In addition, in the series with 59 cancer cell lines, the “PCE (positive cytotoxic effect: cell lines with growth inhibition >10% / total number of cell lines)” value is 5/59. The molecule further had an IC50 against COX-1 above 50 µM. Besides, on COX-2, the “SI, selectivity index (COX-1 IC50/COX-2 IC50)” value was above 55.6 and the IC50 amounted to 900 nM. In the series on PC-3 (Prostate Cancer), this molecule displayed a GI% of 11%. Moreover, the GI% in series [3] was 11%. Besides, the GI% in the series with HOP-92 (NSC Lung Cancer) stood at 11%. For the same molecule, in [1], the “Mean % increase in paw weight ± SEM” value was 78.1 ± 0.7%; the “% Inhibition of paw oedema” value was 57.7% and 57.7 ± 0.5%. For the same molecule, the GI% in [2] is given as 11%. This molecule also gave a GI% in the series with UO-31 (Renal Cancer) of 17%.
`Cc1ccc(NC(=O)c2ccc(CN3CCN(C)CC3)cc2)cc1Nc1nccc(-c2cccnc2)n1` [Imatinib]: the GI% with HT29 (Colon Cancer) is on record as 47.1%; in the series on SR (Leukaemia), 14.6%; in the series with SF-539 (CNS Cancer), 24.5%; in the series on MOLT-4 (Leukaemia), 18.0%; in the series with HCT-116 (Colon Cancer) it was 18.6%; in series [4], 17.1%. In addition, the GI% amounted to 11.5% in the series on HCT-15 (Colon Cancer); 12.6% in the series with PRMI-8226 (Leukaemia); 29.1% in series [5]; 10.6% in series [6]; 10.6% in the series with U251 (CNS Cancer); 11.2% in series [7]. For the same molecule, the GI% with PC-3 (Prostate Cancer) was found to be 10.6%; in the series on DU-145 (Prostate Cancer) it was 14.4%; with EKVX (NSC Lung Cancer) it was 15.7%; with A498 (Renal Cancer) it was 13.7%; in the series on LOX IMVI (Melanoma), 11.6%; with T-47D (Breast Cancer), 18.6%. In the series with SF-295 (CNS Cancer), this molecule came in with a GI% of 15.1%. Further, the “PCE (positive cytotoxic effect: cell lines with growth inhibition >10% / total number of cell lines)” value with 59 cancer cell lines is recorded as 20/59.
